Measured values as given in the supplement of paper PMC10307832.

Legend:
Test in all cases: relative viability (nuclei count vs DMSO), 5 days (fraction); higher = more cells survive
[1] = compound: C1CN(CCN1)C2=CC=C(C=C2)C3=CN4C(=C(C=N4)C5=CC=NC6=CC=CC=C56)N=C3 [DM3189] + Nc1ncn([C@H]2C[C@H](O)[C@@H](CO)O2)c(=O)n1 [Decitabine] (partner 2 µM)
Outline: (§1)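 Relative viability divides the nuclei count in treated wells by that in vehicle wells. Lung cancer cell lines were seeded in 1536-well plates, dosed by pin tool the next day, and fixed and stained after 5 days in one step with final 0.05% Triton X-100, 1% formaldehyde and 1 ug/ml Hoechst. Dosing was a single drug or a fixed anchor-drug dose plus five library-drug doses (not always all listed) in √10 steps, and values are medians of duplicate plates imaged at 4×.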

[2] = compound: C1CN(CCN1)C2=CC=C(C=C2)C3=CN4C(=C(C=N4)C5=CC=NC6=CC=CC=C56)N=C3 [DM3189] + CC(=O)c1c(C)c2cnc(Nc3ccc(N4CCNCC4)cn3)nc2n(C2CCCC2)c1=O [Palbociclib] (partner 0.5 µM)
Outline: as §1

[3] = compound: C1CN(CCN1)C2=CC=C(C=C2)C3=CN4C(=C(C=N4)C5=CC=NC6=CC=CC=C56)N=C3 [DM3189] + Nc1nc2[nH]cc(CCc3ccc(C(=O)N[C@@H](CCC(=O)O)C(=O)O)cc3)c2c(=O)[nH]1 [Pemetrexed] (partner 0.2 µM)
Outline: as §1

[4] = compound: C1CN(CCN1)C2=CC=C(C=C2)C3=CN4C(=C(C=N4)C5=CC=NC6=CC=CC=C56)N=C3 [DM3189] + COc1cc2c(Oc3ccc(NC(=O)C4(C(=O)Nc5ccc(F)cc5)CC4)cc3F)ccnc2cc1OCCCN1CCOCC1 [Foretinib] (partner 0.25 µM)
Outline: as §1

[5] = compound: C1CN(CCN1)C2=CC=C(C=C2)C3=CN4C(=C(C=N4)C5=CC=NC6=CC=CC=C56)N=C3 [DM3189] + CC(C)C[C@H](NC(=O)[C@H](Cc1ccccc1)NC(=O)c1cnccn1)B(O)O [Bortezomib] (partner 0.002 µM)
Outline: as §1

Cell Line	relative viability ([1]; first compound 0.08 µM)	relative viability ([1]; first compound 0.253 µM)	relative viability ([1]; first compound 0.8 µM)	relative viability ([1]; first compound 2.53 µM)	relative viability ([2]; first compound 0.08 µM)	relative viability ([2]; first compound 0.253 µM)	relative viability ([2]; first compound 0.8 µM)	relative viability ([2]; first compound 2.53 µM)	relative viability ([3]; first compound 0.08 µM)	relative viability ([3]; first compound 0.253 µM)	relative viability ([3]; first compound 0.8 µM)	relative viability ([3]; first compound 2.53 µM)	relative viability ([4]; first compound 0.08 µM)	relative viability ([4]; first compound 0.253 µM)	relative viability ([4]; first compound 0.8 µM)	relative viability ([4]; first compound 2.53 µM)	relative viability ([5]; first compound 0.08 µM)	relative viability ([5]; first compound 0.253 µM)	relative viability ([5]; first compound 0.8 µM)	relative viability ([5]; first compound 2.53 µM)
NCI-H1355	0.337	0.39	0.345	0.37	0.357	0.416	0.349	0.387	1.03	0.986	0.821	1.03	0.987	0.968	0.91	0.979	1.21	1.22	0.992	1.17
NCI-H1437	0.6	0.542	0.554	0.571	0.359	0.364	0.339	0.388	0.34	0.333	0.326	0.293	1.29	1.33	1.33	1.33	0.601	0.442	0.543	0.628
NCI-H1650	0.367	0.462	0.366	0.425	0.407	0.292	0.349	0.309	0.311	0.347	0.351	0.37	1.04	1.18	1.21	1.12	0.248	0.163	0.228	0.189
NCI-H1651	0.703	0.646	0.626	0.67	0.543	0.554	0.582	0.574	0.729	0.556	0.553	0.541	0.83	0.716	0.831	0.827	1.04	0.984	0.908	0.971
NCI-H1666	0.882	0.688	0.748	0.83	0.553	0.637	0.656		1	0.818	0.844		1.02	0.97	1.02	0.93	0.853	0.783	0.898	0.91
NCI-H1734	0.528	0.506	0.49	0.524	0.34	0.344	0.283	0.294	0.438	0.4	0.353	0.352	0.888	0.829	0.756	0.823	1.02	0.982	0.778	0.775
NCI-H1755	0.739	0.694	0.729	0.671	0.467	0.431	0.403	0.396	0.418	0.555	0.502	0.395	0.914	0.855	0.718	0.826	0.95	0.878	0.807	0.505
NCI-H1915	0.261	0.253	0.257	0.257	0.506	0.47	0.437	0.481	0.468	0.471	0.454	0.448	1.09	1.07	0.875	1.03	1.04	0.904	0.83	0.88
NCI-H1975	0.374	0.41	0.361	0.336	0.697	0.57	0.379	0.333	0.27	0.281	0.266	0.278	1.02	0.871	0.898	0.782	0.454	0.371	0.297	0.353
NCI-H1993	0.579	0.654	0.571	0.499	0.779	0.809	0.571	0.736	0.622	0.626	0.545	0.541	0.766	0.744	0.672	0.907		0.915	1.17	1.27
NCI-H2009	0.416	0.354	0.412	0.417	0.264	0.195	0.184	0.217	1.07	0.988	0.985	1	1.22	1.16	1.14	1.25	1.24	1.04	0.782	0.984
NCI-H2023	0.229	0.225	0.205	0.201	0.38	0.396	0.4	0.336	0.235	0.231	0.236	0.178	0.938	0.867	0.857	0.552	1.12	0.961	0.823	0.514
NCI-H2085	0.504	0.565	0.564	0.591	0.47	0.457	0.468	0.537	0.885	0.886	0.941	0.869	0.982	1.02	0.925	1.01	1.08	1.04	1.03	0.958
NCI-H2087	0.269	0.249	0.284	0.275	0.212	0.197	0.224	0.238	0.724	0.659	0.67	0.573	1.28	1.18	1.07	0.969	1.1	0.774	0.768	0.736
NCI-H2126	0.558	0.547	0.53	0.61	0.346	0.348	0.367	0.374	0.717	0.624	0.565	0.652	1.14	1.11	1.18	1.16	1.19	1.18	1.19	1.12
NCI-H2347	0.591	0.622	0.576	0.668	0.412	0.4	0.417	0.435	0.473	0.51	0.432	0.518	1.24	1.29	0.957	0.843	1.08	0.91	0.944	1.17
NCI-H2405	0.744	0.744	0.691	0.756	0.54	0.55	0.494	0.453	1.1	0.917	0.997	1.06	1.04	1.06	1.02	1.05	0.986	0.946	0.966	0.96
NCI-H3122	0.362	0.353	0.372	0.367	0.2	0.178	0.154	0.162	0.203	0.197	0.184	0.159	0.98	0.909	0.735	0.805	0.979	0.983	0.973	0.982
PC-3 [JPC-3]	0.848	0.802	0.797	0.797	0.574	0.48	0.553	0.543	1.5	1.02	1.08	0.856	1.09	1.1	0.993	1.08	1	0.869	0.849	0.785
PC-14	0.303	0.237	0.21	0.253	0.591	0.458	0.465	0.449	0.142	0.125	0.14	0.122	1.02	0.985	0.876	1.07	0.832	0.885	0.832	0.812
RERF-LC-KJ	0.754	0.615	0.757	0.618	1.31	1.27	0.989	1.03	0.461	0.471	0.469	0.559	1.03	0.904	0.927	0.97	1.61	1.21	1.15	1.26
SK-LU-1	0.567	0.585	0.537	0.451	0.339	0.268	0.329	0.31	1	0.863	0.857	0.549	0.77	0.66	0.492	0.479	1.24	0.882	0.738	0.7
SW 1573	0.616	0.381	0.46	0.263	0.454	0.342	0.339	0.255	0.948	0.791	0.706	0.638	1	0.737	1.05	0.99	1.16	0.869	1	0.82
UMC-11	0.616	0.506	0.602	0.511	0.371	0.333	0.313	0.323	0.845	0.763	0.814	0.562	1.01	0.975	0.988	1.02	0.863	0.635	0.769	0.397
